In patent US20050080024A1, “Nitric oxide donating derivatives for the treatment of cardiovascular disorders” (priority 2002, published 2005):
Like-named read-outs stand apart in the source and are kept apart here.

Assays:
[1] = test system: C. albicans; test: Murine model for systemic candidiasis; format: in vivo; conditions: treated mice; fluconazole orally
Description: In addition, fungicidal compounds of the invention are efficacious in a murine model for systemic candidiasis. Fungicidal compounds of the invention prolong mean and median survival times of treated mice. The compounds are administered IP producing a similar survival pattern as that produced by the positive control compound fluconazole administered orally. […] Fungicidal compounds of the invention are also efficacious when administered orally to mice with an established systemic Candida infection. The compound given orally is similar in efficacy to fluconazole as measured by survival time, percent cures and kidney burden. Fungicidal compounds of the invention are also effective against systemic candidiasis caused by a strain of C. albicans resistant to fluconazole.

[2] = human study; cited from earlier work
[3] = rabbits; cited from earlier work
[4] = test system: ApoA-1 gene; conditions: putatively mediated through Site S (PCT/CA03/01220); cited from earlier work

OC(Cn1cncn1)(Cn1cncn1)c1ccc(F)cc1F [fluconazole]
recoverable colonies from the kidneys [1]: reduce recoverable colonies from the kidneys

O=C1CC(c2ccc(O)cc2)Oc2cc(O)cc(O)c21 (stereo not shown) [naringenin, 5,7-dihydroxy-2-(4-hydroxy-phenyl)-chroman-4-one]
HDL [2]: increase HDL
LDL [2]: no effect
triglycerides [2]: no effect
HDL [3]: no effect upon HDL
LDL [3]: decrease LDL

Oc1ccc(/C=C/c2cc(O)cc(O)c2)cc1 [resveratrol, 5-[(E)-2-(4-hydroxy-phenyl)-vinyl]-benzene-1,3-diol]
transcription of apolipoprotein Al [4]: increase the transcription of apolipoprotein Al
